Measured values reported in ChEMBL document CHEMBL3797052 (Eur J Med Chem, 2016).

test system: A498; assay: Antiproliferative activity against human A498 cells assessed as cell growth at 10^-6 M after 48 hrs by sulforhodamine B assay; format: functional; conditions: A498, 48 h, read-out: Activity

| SMILES | growth at 1 µM |
| --- | --- |
| CNC(=O)c1cc(Oc2ccc3nc(NC(=O)Nc4cc(C(F)(F)F)cc(C(F)(F)F)c4)sc3c2)ccn1 | 51% |

test system: not listed separately; assay: Antiproliferative activity against human OVCAR4 cells assessed as cell growth at 10^-6 M after 48 hrs by sulforhodamine B assay; format: functional; conditions: OVCAR-4, 48 h, read-out: Activity

| SMILES | growth at 1 µM |
| --- | --- |
| CNC(=O)c1cc(Oc2ccc3nc(NC(=O)Nc4cc(C(F)(F)F)cc(C(F)(F)F)c4)sc3c2)ccn1 | 49% |

test system: K562; assay: Antiproliferative activity against human K562 cells assessed as cell growth at 10^-8 M after 48 hrs by sulforhodamine B assay; format: functional; conditions: K562, 48 h, read-out: Activity

| SMILES | growth at 0.01 µM |
| --- | --- |
| CNC(=O)c1cc(Oc2ccc3nc(NC(=O)Nc4cc(C(F)(F)F)cc(C(F)(F)F)c4)sc3c2)ccn1 | 104% |

test system: U-251; assay: Antiproliferative activity against human U251 cells assessed as cell growth at 10^-8 M after 48 hrs by sulforhodamine B assay; format: functional; conditions: U-251, 48 h, read-out: Activity

| SMILES | growth at 0.01 µM |
| --- | --- |
| CNC(=O)c1cc(Oc2ccc3nc(NC(=O)Nc4cc(C(F)(F)F)cc(C(F)(F)F)c4)sc3c2)ccn1 | 103% |

test system: NCI-H226; assay: Antiproliferative activity against human NCI-H226 cells assessed as cell growth at 10^-6 M after 48 hrs by sulforhodamine B assay; format: functional; conditions: NCI-H226, 48 h, read-out: Activity

| SMILES | growth at 1 µM |
| --- | --- |
| CNC(=O)c1cc(Oc2ccc3nc(NC(=O)Nc4cc(C(F)(F)F)cc(C(F)(F)F)c4)sc3c2)ccn1 | 71% |

test system: not listed separately; assay: Antiproliferative activity against human TK10 cells assessed as cell growth at 10^-8 M after 48 hrs by sulforhodamine B assay; format: functional; conditions: TK-10, 48 h, read-out: Activity

| SMILES | growth at 0.01 µM |
| --- | --- |
| CNC(=O)c1cc(Oc2ccc3nc(NC(=O)Nc4cc(C(F)(F)F)cc(C(F)(F)F)c4)sc3c2)ccn1 | 95% |

test system: NCI-H460; assay: Antiproliferative activity against human NCI-H460 cells assessed as growth inhibition after 48 hrs by sulforhodamine B assay; format: functional; conditions: NCI-H460, 48 h

| SMILES | GI50 | LC50 (concentration killing 50% of cells) | TGI |
| --- | --- | --- | --- |
| CNC(=O)c1cc(Oc2ccc3nc(NC(=O)Nc4cc(C(F)(F)F)cc(C(F)(F)F)c4)sc3c2)ccn1 | 1230 nM | 6600 nM | 2850 nM |

test system: HT-29; assay: Antiproliferative activity against human HT-29 cells assessed as cell growth at 10^-4 M after 48 hrs by sulforhodamine B assay; format: functional; conditions: HT-29, 48 h, read-out: Activity

| SMILES | growth at 100 µM |
| --- | --- |
| CNC(=O)c1cc(Oc2ccc3nc(NC(=O)Nc4cc(C(F)(F)F)cc(C(F)(F)F)c4)sc3c2)ccn1 | -82% |

test system: not listed separately; assay: Antiproliferative activity against human OVCAR8 cells assessed as cell growth at 10^-7 M after 48 hrs by sulforhodamine B assay; format: functional; conditions: OVCAR-8, 48 h, read-out: Activity

| SMILES | growth at 0.1 µM |
| --- | --- |
| CNC(=O)c1cc(Oc2ccc3nc(NC(=O)Nc4cc(C(F)(F)F)cc(C(F)(F)F)c4)sc3c2)ccn1 | 102% |

test system: MDA-MB-468; assay: Antiproliferative activity against human MDA-MB-468 cells assessed as cell growth at […] after 48 hrs by sulforhodamine B assay; format: functional; conditions: MDA-MB-468, 48 h, read-out: Activity

| SMILES | growth at 0.01 µM |
| --- | --- |
| CNC(=O)c1cc(Oc2ccc3nc(NC(=O)Nc4cc(C(F)(F)F)cc(C(F)(F)F)c4)sc3c2)ccn1 | 84% |

test system: KM12; assay: Antiproliferative activity against human KM12 cells assessed as cell growth at 10^-7 M after 48 hrs by sulforhodamine B assay; format: functional; conditions: KM12, 48 h, read-out: Activity

| SMILES | growth at 0.1 µM |
| --- | --- |
| CNC(=O)c1cc(Oc2ccc3nc(NC(=O)Nc4cc(C(F)(F)F)cc(C(F)(F)F)c4)sc3c2)ccn1 | 95% |

test system: not listed separately; assay: Antiproliferative activity against human HCC2998 cells assessed as cell growth at 10^-8 M after 48 hrs by sulforhodamine B assay; format: functional; conditions: HCC 2998, 48 h, read-out: Activity

| SMILES | growth at 0.01 µM |
| --- | --- |
| CNC(=O)c1cc(Oc2ccc3nc(NC(=O)Nc4cc(C(F)(F)F)cc(C(F)(F)F)c4)sc3c2)ccn1 | 93% |

test system: not listed separately; assay: Antiproliferative activity against human PC3 cells assessed as growth inhibition after 48 hrs by sulforhodamine B assay; format: functional; conditions: PC-3, 48 h

| SMILES | GI50 | LC50 | TGI |
| --- | --- | --- | --- |
| CNC(=O)c1cc(Oc2ccc3nc(NC(=O)Nc4cc(C(F)(F)F)cc(C(F)(F)F)c4)sc3c2)ccn1 | 611 nM | 7070 nM | 2290 nM |

test system: not listed separately; assay: Antiproliferative activity against human TK10 cells assessed as growth inhibition after 48 hrs by sulforhodamine B assay; format: functional; conditions: TK-10, 48 h

| SMILES | GI50 | TGI |
| --- | --- | --- |
| CNC(=O)c1cc(Oc2ccc3nc(NC(=O)Nc4cc(C(F)(F)F)cc(C(F)(F)F)c4)sc3c2)ccn1 | 1670 nM | 3350 nM |

same assay, conditions: TK-10, 48 h, read-out: LC50 (the source's name)

| SMILES | CC50 |
| --- | --- |
| CNC(=O)c1cc(Oc2ccc3nc(NC(=O)Nc4cc(C(F)(F)F)cc(C(F)(F)F)c4)sc3c2)ccn1 | 6720 nM |

test system: not listed separately; assay: Antiproliferative activity against human Caki1 cells assessed as growth inhibition after 48 hrs by sulforhodamine B assay; format: functional; conditions: CAKI-1, 48 h

| SMILES | GI50 | TGI |
| --- | --- | --- |
| CNC(=O)c1cc(Oc2ccc3nc(NC(=O)Nc4cc(C(F)(F)F)cc(C(F)(F)F)c4)sc3c2)ccn1 | 1150 nM | 2690 nM |

same assay, conditions: CAKI-1, 48 h, read-out: LC50 (the source's name)

| SMILES | CC50 |
| --- | --- |
| CNC(=O)c1cc(Oc2ccc3nc(NC(=O)Nc4cc(C(F)(F)F)cc(C(F)(F)F)c4)sc3c2)ccn1 | 6280 nM |

test system: MDA-MB-231; assay: Antiproliferative activity against human MDA-MB-231 cells assessed as cell growth at 10^-6 M after 48 hrs by sulforhodamine B assay; format: functional; conditions: MDA-MB-231, 48 h, read-out: Activity

| SMILES | growth at 1 µM |
| --- | --- |
| CNC(=O)c1cc(Oc2ccc3nc(NC(=O)Nc4cc(C(F)(F)F)cc(C(F)(F)F)c4)sc3c2)ccn1 | 46% |

target: Serine/threonine-protein kinase B-raf (Homo sapiens, UniProt P15056, V600E); assay: Inhibition of BRAF V600E mutant (unknown origin) measured after 40 mins by scintillation counting; conditions: not given
Sequence (P15056 2-766 V600E limits assumed): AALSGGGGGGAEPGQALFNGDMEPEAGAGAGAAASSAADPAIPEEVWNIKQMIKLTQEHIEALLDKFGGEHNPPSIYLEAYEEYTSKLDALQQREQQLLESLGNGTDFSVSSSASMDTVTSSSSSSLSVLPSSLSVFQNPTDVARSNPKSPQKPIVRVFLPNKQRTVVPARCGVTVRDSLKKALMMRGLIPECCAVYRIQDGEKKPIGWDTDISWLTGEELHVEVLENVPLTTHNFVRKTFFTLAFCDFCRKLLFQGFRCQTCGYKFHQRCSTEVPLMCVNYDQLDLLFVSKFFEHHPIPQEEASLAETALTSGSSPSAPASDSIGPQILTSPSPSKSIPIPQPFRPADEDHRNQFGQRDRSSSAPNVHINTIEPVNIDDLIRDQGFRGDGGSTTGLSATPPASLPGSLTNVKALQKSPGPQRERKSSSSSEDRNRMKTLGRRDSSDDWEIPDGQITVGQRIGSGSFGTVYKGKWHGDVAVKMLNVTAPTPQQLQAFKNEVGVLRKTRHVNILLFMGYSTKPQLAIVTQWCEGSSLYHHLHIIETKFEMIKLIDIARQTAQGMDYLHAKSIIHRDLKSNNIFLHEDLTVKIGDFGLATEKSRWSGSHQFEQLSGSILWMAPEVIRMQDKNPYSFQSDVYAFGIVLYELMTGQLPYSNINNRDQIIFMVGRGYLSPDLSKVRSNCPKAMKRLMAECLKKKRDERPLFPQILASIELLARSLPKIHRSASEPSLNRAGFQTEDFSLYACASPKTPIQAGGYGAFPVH

| SMILES | IC50 |
| --- | --- |
| CNC(=O)c1cc(Oc2ccc3nc(NC(=O)Nc4cc(C(F)(F)F)cc(C(F)(F)F)c4)sc3c2)ccn1 | 1230 nM |
